The data set concerns the target ATP-dependent translocase ABCB1 (Homo sapiens, UniProt P08183). Briefly: TP_TRANSPORTER: transepithelial transport (basal to apical) of AGN 197075 at a concentration of 10 uM in MDR1-expressing MDCK cells. The following applies: dog. In kind it is functional, cell-based.

Each structure is given as a SMILES string.

ATP-dependent translocase ABCB1, sequence (P08183 whole entry): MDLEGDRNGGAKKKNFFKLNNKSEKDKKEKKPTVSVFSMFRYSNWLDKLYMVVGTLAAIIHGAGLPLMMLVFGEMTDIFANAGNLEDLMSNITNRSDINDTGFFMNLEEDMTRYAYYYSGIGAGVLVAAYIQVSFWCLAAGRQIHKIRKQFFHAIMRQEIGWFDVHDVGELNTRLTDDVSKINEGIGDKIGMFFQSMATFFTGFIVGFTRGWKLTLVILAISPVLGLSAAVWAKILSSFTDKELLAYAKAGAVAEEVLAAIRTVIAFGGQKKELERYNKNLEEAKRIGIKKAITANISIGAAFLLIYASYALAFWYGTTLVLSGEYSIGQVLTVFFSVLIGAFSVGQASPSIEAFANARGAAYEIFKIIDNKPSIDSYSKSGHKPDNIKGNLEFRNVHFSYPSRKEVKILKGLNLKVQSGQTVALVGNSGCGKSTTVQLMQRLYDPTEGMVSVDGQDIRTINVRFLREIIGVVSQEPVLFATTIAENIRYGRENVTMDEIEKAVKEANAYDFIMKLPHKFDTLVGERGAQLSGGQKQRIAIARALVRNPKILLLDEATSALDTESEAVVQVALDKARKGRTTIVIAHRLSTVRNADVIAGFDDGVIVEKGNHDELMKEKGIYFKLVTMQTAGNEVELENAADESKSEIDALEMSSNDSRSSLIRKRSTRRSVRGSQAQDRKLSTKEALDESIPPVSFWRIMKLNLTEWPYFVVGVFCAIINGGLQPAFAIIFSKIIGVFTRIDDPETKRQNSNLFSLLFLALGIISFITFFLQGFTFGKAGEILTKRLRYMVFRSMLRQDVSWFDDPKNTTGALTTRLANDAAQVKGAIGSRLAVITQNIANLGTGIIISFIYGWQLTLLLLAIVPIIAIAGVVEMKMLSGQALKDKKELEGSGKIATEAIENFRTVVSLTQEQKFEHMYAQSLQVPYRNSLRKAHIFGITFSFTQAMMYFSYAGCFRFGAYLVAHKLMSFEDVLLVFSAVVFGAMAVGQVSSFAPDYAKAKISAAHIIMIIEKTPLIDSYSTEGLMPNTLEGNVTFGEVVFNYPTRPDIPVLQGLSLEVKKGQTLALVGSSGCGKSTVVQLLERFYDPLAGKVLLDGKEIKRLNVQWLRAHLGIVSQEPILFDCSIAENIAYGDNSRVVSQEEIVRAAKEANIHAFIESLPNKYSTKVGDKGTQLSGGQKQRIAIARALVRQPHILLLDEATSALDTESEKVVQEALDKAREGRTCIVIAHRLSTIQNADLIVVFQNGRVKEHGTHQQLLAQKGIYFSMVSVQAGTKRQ

For `OCCNC(=S)NCc1cccc(Cl)c1F`, the Activity entry is “substrate [+]”.

Source of the values: ChEMBL document CHEMBL2074165, “Evaluation of an immortalized retinal endothelial cell line as an in vitro model for drug transport studies across the blood-retinal barrier” (Pharm Res, 2003).
